Test results from patent publication US9518015B2, “EP1 receptor ligands” (LABORATORIOS DEL DR. ESTEVE, S.A., priority 2011, dated 2016).

Columns and labels:
human EP1 receptor [1] = biological target: T1, human EP1 receptor (Homo sapiens, UniProt P34995); assay: Test 1: Human EP1 receptor radioligand binding assay ([3H]-PGE2, transfected HEK-293 cell membranes); design: expressed in transfected cells; host or cells: HEK-293 cell membranes; conditions: for Results of Test 1 (Binding assay), % inh: at 10 μM; for inhibition at 10 µM: read-out: Results of Test 1 (Binding assay), % inh
T1 sequence (P34995 1-402): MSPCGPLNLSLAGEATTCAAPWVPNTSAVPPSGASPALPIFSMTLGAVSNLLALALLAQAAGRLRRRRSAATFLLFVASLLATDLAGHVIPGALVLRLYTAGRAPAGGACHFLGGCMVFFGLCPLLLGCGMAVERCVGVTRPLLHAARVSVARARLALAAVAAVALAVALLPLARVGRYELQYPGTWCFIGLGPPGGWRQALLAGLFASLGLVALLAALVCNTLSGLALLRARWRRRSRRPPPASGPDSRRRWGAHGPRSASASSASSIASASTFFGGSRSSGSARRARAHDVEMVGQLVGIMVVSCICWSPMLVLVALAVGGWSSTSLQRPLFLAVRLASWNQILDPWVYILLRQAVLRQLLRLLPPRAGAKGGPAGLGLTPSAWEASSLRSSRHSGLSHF
Method: Test 1: Human EP1 Receptor Radioligand Binding Assay
To investigate binding properties of EP1 receptor ligands to human EP1 receptor, transfected HEK-293 cell membranes and [3H]-PGE2 (Perkin Elmer) were used. In 96-well plates the assay was carried out with a total reaction volume of 250 μl, containing 25 μl of membrane suspension (30 μg protein/well), 25 μl of [3H]-PGE2 (10 nM) in either absence or presence of 25 μl of either buffer or PGE2 (10 μM) for total and non-specific binding, respectively. Binding buffer contained 10 mM MES, 1 mM MgCl2 and 1 mM EDTA at pH 6.0. Plates were incubated at 25° C. for 60 minutes. After the incubation period, 200 μl of incubate were transferred to MultiScreen HTS, FB plates (Millipore), filtered and plates were washed 6 times with ice-cold 10 mM MES, 1 mM MgCl2 and 1 mM EDTA at pH 6.0. Filters were dried and counted in a MicroBeta scintillation counter (Perkin-Elmer) using EcoScint liquid scintillation cocktail.
Percentage inhibition was calculated relating compounds activity to the 0% inhibition of the wells incubated with 10 nM [3H]-PGE2 alone (total binding) and 100% inhibition of the wells incubated with 10 nM [3H]-PGE2 plus 10 μM PGE2 (non-specific binding).

human EP1 receptor [2] = biological target: T1, human EP1 receptor; assay: Test 2: Measurement of IP1 responses by HTRF, suspended HEK-293 cells stably expressing human EP1 receptors, PGE2 30 nM; type: cell-based; design: expressed in transfected cells; conditions: for inhibition at 10 µM: HEK293, at 10 μM, read-out: Results of Test 2 (Functional assay), % inh
Method: Test 2: Measurement of IP1 responses by Homogeneous Time Resolved Fluorescence
IP1 measurements on HEK-293 cells that stably expressed human EP1 receptors were performed by using a system based on Homogeneous Time Resolved Fluorescense (HTRF) (Gabriel et al., 2003). This technology allows the direct measurement of IP1 in living cells. The principle of this assay is based on competition between IP1 produced by cells and IP1-d2 conjugate for the binding with monoclonal anti-IP1-cryptate conjugate. The HTRF IP1 kit from CisBio was used according to the manufacturer's directions. The experimental procedure was performed as stated below.
Suspended cells (30,000 cells per well) were added to 96-well culture plates in 40 μl of stimulation buffer (supplied by the kit). Compounds were then added in 20 μl of stimulation buffer and incubated at 37° C. for 15 minutes followed by 10 μl of PGE2 to a final concentration of […]. After 90 minutes at 37° C., the reaction was stopped lysing the cells with a mixture of 15 μl of cryptate and 15 μl of IP1-d2 prepared in the lysis buffer supplied by the manufacturer. Plates were incubated for an additional hour at room temperature and read at 665 nm/620 nm using an UltraEvolution Plate reader (Tecan).
Antagonist percentage inhibition was calculated relating compounds activity to the 0% inhibition of the wells incubated with 10 nM PGE2 alone and 100% inhibition of the wells incubated with 10 nM PGE2 plus 1 μM of the reference antagonist.

Compound	inhibition at 10 µM (human EP1 receptor [1])	also measured
1-(5-chloro-2-((2-chloro-5-fluorobenzyl)oxy)benzyl)-1H-indole-4-carboxylic acid [Example 30]	–	Results of Test 1 (Binding assay), % inh (human EP1 receptor [1]): ## (45 < % inh < 75)
2-((1-(5-chloro-2-(cyclopropylmethoxy)benzyl)-1H-indol-4-yl)oxy)acetic acid [Example 86]	–	Results of Test 2 (Functional assay), % inh (human EP1 receptor [2]; at 10 μM): $$ (45 < % inh < 75)
O=C(O)c1cccc2c1ccn2Cc1cc(Br)ccc1OCc1ccccc1 [Example 2, 1-(2-(benzyloxy)-5-bromobenzyl)-1H-indole-4-carboxylic acid]	–	inhibition at 10 µM (human EP1 receptor [2]): > 75%
O=C(O)c1cccc2c1ccn2Cc1cc(C(F)(F)F)ccc1OCc1ccccc1 [Example 3, 1-(2-(benzyloxy)-5-(trifluoromethyl)benzyl)-1H-indole-4-carboxylic acid]	–	inhibition at 10 µM (human EP1 receptor [2]): > 75%
O=C(O)c1cccc2c1ccn2Cc1cc(Br)ccc1OCc1ccc(F)cc1 [Example 4, 1-(5-bromo-2-((4-fluorobenzyl)oxy)benzyl)-1H-indole-4-carboxylic acid]	–	inhibition at 10 µM (human EP1 receptor [2]): > 75%
O=C(O)c1cccc2c1ccn2Cc1cc(Cl)ccc1OCc1ccc(F)cc1 [Example 5, 1-(5-chloro-2-((4-fluorobenzyl)oxy)benzyl)-1H-indole-4-carboxylic acid]	–	inhibition at 10 µM (human EP1 receptor [2]): > 75%
O=C(O)c1cccc2c1ccn2Cc1cc(C(F)(F)F)ccc1OCc1ccc(Cl)cc1F [Example 6, 1-(2-((4-chloro-2-fluorobenzyl)oxy)-5-(trifluoromethyl)benzyl)-1H-indole-4-carboxylic acid]	–	inhibition at 10 µM (human EP1 receptor [2]): > 75%
O=C(O)c1cccc2c1ccn2Cc1cc(Cl)ccc1OCC1CC1 [Example 7, 1-(5-chloro-2-(cyclopropylmethoxy)benzyl)-1H-indole-4-carboxylic acid]	–	inhibition at 10 µM (human EP1 receptor [2]): > 75%
O=C(O)c1cccc2c1ccn2Cc1cc(Br)ccc1OCC1CC1 [Example 8, 1-(5-bromo-2-(cyclopropylmethoxy)benzyl)-1H-indole-4-carboxylic acid]	–	inhibition at 10 µM (human EP1 receptor [2]): > 75%
O=C(O)c1cccc2c1ccn2Cc1cc(Br)ccc1OCc1ccc(Cl)cc1F [Example 9, 1-(5-bromo-2-((4-chloro-2-fluorobenzyl)oxy)benzyl)-1H-indole-4-carboxylic acid]	–	inhibition at 10 µM (human EP1 receptor [2]): > 75%
CC(C)COc1cc(Cl)ccc1Cn1ccc2c(C(=O)O)cccc21 [Example 10, 1-(4-chloro-2-isobutoxybenzyl)-1H-indole-4-carboxylic acid]	–	inhibition at 10 µM (human EP1 receptor [2]): 45 to 75%
O=C(O)c1cccc2c1ccn2Cc1cc(F)ccc1OCc1cc(F)c(F)cc1F [Example 16, 1-(5-fluoro-2-((2,4,5-trifluorobenzyl)oxy)benzyl)-1H-indole-4-carboxylic acid]	> 75%	–
O=C(O)c1cccc2c1ccn2Cc1cc(Br)ccc1OCc1ccc(F)c(F)c1F [Example 22, 1-(5-bromo-2-((2,3,4-trifluorobenzyl)oxy)benzyl)-1H-indole-4-carboxylic acid]	45 to 75%	–
O=C(O)c1cccc2c1ccn2Cc1cc(C(F)(F)F)ccc1OCc1ccc(Br)cc1F [Example 50, 1-(2-((4-bromo-2-fluorobenzyl)oxy)-5-(trifluoromethyl)benzyl)-1H-indole-4-carboxylic acid]	> 75%	–
O=C(O)c1cccc2c1ccn2Cc1cc(Cl)ccc1OCc1c(F)cc(Cl)cc1F [Example 57, 1-(5-chloro-2-((4-chloro-2,6-difluorobenzyl)oxy)benzyl)-1H-indole-4-carboxylic acid]	> 75%	–
CCCOc1ccc(Cl)cc1Cn1ccc2c(C(=O)O)cccc21 [Example 106]	45 to 75%	–
O=C(O)c1cccc2c1ccn2Cc1cc(Cl)ccc1OCC(F)(F)F [Example 112]	> 75%	–
O=C(O)c1cccc2c1cnn2Cc1cc(Cl)ccc1OC1CCCC1 [Example 133]	> 75%	–
CCCOc1ccc(F)cc1Cn1ncc2c(C(=O)O)cccc21 [Example 135]	45 to 75%	–
O=C(O)c1ccc(F)c2c1ccn2Cc1ccccc1OCc1ccc(F)cc1F [Example 140]	45 to 75%	–
CC(C)(F)COc1ccc(Cl)cc1Cn1cc(CCO)c2c(C(=O)O)cccc21 [Example 158]	> 75%	–
CC(C)C(C)Oc1ccc(Cl)cc1CN1CCCc2c(C(=O)O)cccc21 (stereo not shown) [Example 176]	45 to 75%	–
COCCOc1ccc(Cl)cc1CN1CCc2c(C(=O)O)cccc21 [Example 201]	45 to 75%	–
CC(C)(C)COc1ccc(Cl)cc1CN1CCc2c(C(=O)O)cccc21 [Example 203]	45 to 75%	–
CC(C)(F)COc1ccc(Cl)cc1Cn1ncc2c(C(=O)[O-])ccnc21.[Na+] [Example 213]	–	Results of Test 1 (Binding assay), % inh (human EP1 receptor [1]): # (% inh > 75)

More lines, main results first:

inhibition at 10 µM (human EP1 receptor [1])	Compound	also measured
> 75%	O=C(O)c1cccc2c1ccn2Cc1cc(Cl)ccc1OCc1cc(F)c(F)cc1F [Example 15, 1-(5-chloro-2-((2,4,5-trifluorobenzyl)oxy)benzyl)-1H-indole-4-carboxylic acid]	–
> 75%	O=C(O)c1cccc2c1ccn2Cc1cc(Br)ccc1OCc1ccc(F)cc1C(F)(F)F [Example 26, 1-(5-bromo-2-((4-fluoro-2-(trifluoromethyl)benzyl)oxy)benzyl)-1H-indole-4-carboxylic acid]	–
> 75%	O=C(O)c1cccc2c1ccn2Cc1cc(Br)ccc1OCc1ccc(F)cc1Cl [Example 27, 1-(5-bromo-2-((2-chloro-4-fluorobenzyl)oxy)benzyl)-1H-indole-4-carboxylic acid]	–
45 to 75%	O=C(O)c1cccc2c1ccn2Cc1cc(Cl)ccc1OCc1cc(F)c(F)cc1Cl [Example 31, 1-(5-chloro-2-((2-chloro-4,5-difluorobenzyl)oxy)benzyl)-1H-indole-4-carboxylic acid]	–
45 to 75%	O=C(O)c1cccc2c1ccn2Cc1cc(F)ccc1OCc1cc(F)ccc1F [Example 32, 1-(2-((2,5-difluorobenzyl)oxy)-5-fluorobenzyl)-1H-indole-4-carboxylic acid]	–
> 75%	O=C(O)c1cccc2c1ccn2Cc1cc(Cl)ccc1OCc1ccccc1 [Example 44, 1-(2-(benzyloxy)-5-chlorobenzyl)-1H-indole-4-carboxylic acid]	–
> 75%	O=C(O)c1cccc2c1ccn2Cc1cc(F)ccc1OCc1ccc(Br)cc1F [Example 56, 1-(2-((4-bromo-2-fluorobenzyl)oxy)-5-fluorobenzyl)-1H-indole-4-carboxylic acid]	–
> 75%	O=C(O)c1ccnc2c1ccn2Cc1cc(Cl)ccc1OCc1ccc(F)cc1F [Example 91]	–
> 75%	O=C(O)c1ncnc2c1ccn2Cc1cc(Cl)ccc1OCc1ccc(Cl)cc1F [Example 98]	–
45 to 75%	COc1ccc(OCc2ccc(F)cc2F)c(Cn2ccc3c(C(=O)O)cccc32)c1 [Example 101, sodium 1-{2-[(2,4-difluorobenzyl)oxy]-5-methoxybenzyl}-1H-indole-4-carboxylate]	–
45 to 75%	CCCOc1ccc(F)cc1Cn1ccc2c(C(=O)O)cccc21 [Example 104]	–
> 75%	O=C(O)c1cccc2c1ccn2Cc1cc(Cl)ccc1OC1CCCC1 [Example 105]	–
45 to 75%	CC(C)COc1ccc(F)cc1Cn1ccc2c(C(=O)O)cccc21 [Example 108]	–
45 to 75%	O=C(O)c1cccc2c1ccn2Cc1cc(Cl)ccc1OCCF [Example 111]	–
> 75%	O=C(O)c1cccc2c1c(CCO)cn2Cc1cc(F)ccc1OCc1ccc(F)cc1F [Example 159]	–
